# Assay results: ChEMBL document CHEMBL4368862, “Design, synthesis, and anticancer activity evaluation of irreversible allosteric inhibitors of the ubiquitin-conjugating enzyme Ube2g2” (Medchemcomm, 2018)
# Calls of active or inactive are those of the source. The calls are words filed in the database; no cut-off is given here.
# Experiments:
# [1] = target: T1, Ubiquitin-conjugating enzyme E2 G2 (Homo sapiens) (UniProt P60604); test: Binding affinity to recombinant TEV cleavage site-fused-His6-tagged Ube2g2 (unknown origin) expressed in Escherichia coli Rosetta2 (DE3) assessed as compound-protein complex formation at 5 uL measured after overnight incubation at pH 7.4 by LC/MS analysis
# T1 sequence (whole entry): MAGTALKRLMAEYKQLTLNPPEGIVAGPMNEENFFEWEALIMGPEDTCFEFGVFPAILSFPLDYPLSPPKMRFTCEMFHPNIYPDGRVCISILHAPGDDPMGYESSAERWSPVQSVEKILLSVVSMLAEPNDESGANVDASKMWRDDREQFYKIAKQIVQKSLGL
# [2] = target: T1, Ubiquitin-conjugating enzyme E2 G2 (Homo sapiens); test: (§1) Binding affinity to recombinant TEV cleavage site-fused-His6-tagged Ube2g2 (unknown origin) expressed in Escherichia coli Rosetta2 (DE3) assessed as molecular weight of compound-protein conjugate at 5 uL measured after overnight incubation at pH 8.5 by LC/MS analysis (reference value: 18491 Da)
# [3] = target: T1, Ubiquitin-conjugating enzyme E2 G2 (Homo sapiens); test: as §1, with “assessed as modification of Cys48 residue by measuring molecular weight” for “assessed as molecular weight”
# [4] = target: T1, Ubiquitin-conjugating enzyme E2 G2 (Homo sapiens); test: as §1, with “assessed as modification of Cys75 residue by measuring molecular weight” for “assessed as molecular weight”
# [5] = target: T1, Ubiquitin-conjugating enzyme E2 G2 (Homo sapiens); test: as §1, with “assessed as modification of Cys89 residue by measuring molecular weight” for “assessed as molecular weight”
SMILES,Activity [1],Activity [2],Activity [3] [Da],Activity [4] [Da],Activity [5] [Da]
C=CC(=O)N[C@@H](/C=C/C(=O)O)Cc1ccc(-c2cc(Cl)cc(Cl)c2)cc1,inactive,18900 Da,,,
C=CCC(=O)N[C@@H](/C=C/C(=O)O)Cc1ccc(-c2cc(Cl)cc(Cl)c2)cc1,inactive,inactive,,,
C=CCC(=O)N[C@H](/C=C/C(=O)OCC)Cc1ccc(-c2cc(Cl)cc(Cl)c2)cc1,inactive,inactive,,,
CCOC(=O)/C=C/[C@H](Cc1ccc(-c2cc(Cl)cc(Cl)c2)cc1)NC(=O)OC(C)(C)C,inactive,18900 Da,,,
C=CCC(=O)N[C@H](CO)Cc1ccc(-c2cc(Cl)cc(Cl)c2)cc1,inactive,inactive,,,
C=CCC(=O)N[C@@H](/C=C/C(=O)OCC)Cc1ccc(-c2cc(Cl)cc(Cl)c2)cc1,inactive,inactive,,,
C=CC(=O)N[C@H](/C=C/C(=O)OCC)Cc1ccc(-c2cc(Cl)cc(Cl)c2)cc1,inactive,18900 Da,,,
C=CC(=O)N[C@@H](/C=C/C(=O)OCC)Cc1ccc(-c2cc(Cl)cc(Cl)c2)cc1,inactive,18900 Da,,,
C=CCC(=O)N[C@@H](CO)Cc1ccc(-c2cc(Cl)cc(Cl)c2)cc1,inactive,inactive,,,
CC(C)(C)OC(=O)N[C@H](C=O)Cc1ccc(-c2cc(Cl)cc(Cl)c2)cc1,inactive,18900 to 19300 Da,,,
C=CC(=O)N[C@H](CO)Cc1ccc(-c2cc(Cl)cc(Cl)c2)cc1,inactive,,18800,19200,19500
C=CC(=O)N[C@@H](CO)Cc1ccc(-c2cc(Cl)cc(Cl)c2)cc1,inactive,18800 to 19200 Da,,,

# Next, values leading:
Activity [1],Activity [2],Activity [3] [Da],Activity [4] [Da],Activity [5] [Da],SMILES
inactive,inactive,,,,C=CC(=O)N[C@@H](Cc1ccc(-c2cc(Cl)cc(Cl)c2)cc1)[C@H](O)[C@@H](O)C(=O)O
inactive,18900 Da,,,,C=CC(=O)N[C@H](Cc1ccc(-c2cc(Cl)cc(Cl)c2)cc1)[C@@H](O)[C@H](O)C(=O)OCC
inactive,inactive,,,,C=CCC(=O)N[C@@H](Cc1ccc(-c2cc(Cl)cc(Cl)c2)cc1)[C@H](O)[C@@H](O)C(=O)O
inactive,inactive,,,,C=CCC(=O)N[C@H](Cc1ccc(-c2cc(Cl)cc(Cl)c2)cc1)[C@@H](O)[C@H](O)C(=O)OCC
inactive,inactive,,,,C=CCC(=O)N[C@@H](Cc1ccc(-c2cc(Cl)cc(Cl)c2)cc1)[C@H](O)[C@@H](O)C(=O)OCC
inactive,18900 Da,,,,C=CC(=O)N[C@@H](Cc1ccc(-c2cc(Cl)cc(Cl)c2)cc1)[C@H](O)[C@@H](O)C(=O)OCC
inactive,inactive,,,,C=CCC(=O)N[C@H](Cc1ccc(-c2cc(Cl)cc(Cl)c2)cc1)[C@@H](O)[C@H](O)C(=O)O
inactive,18900 to 19300 Da,,,,C=CC(=O)N[C@H](Cc1ccc(-c2cc(Cl)cc(Cl)c2)cc1)[C@@H](O)[C@H](O)C(=O)O
